Laboratory results as given in ChEMBL document CHEMBL5230156, “Chromosome Region Maintenance 1 (XPO1/CRM1) as an Anticancer Target and Discovery of Its Inhibitor” (J Med Chem, 2021).
One block for each compound: values may come before it.

Tests used:
SGC-7901 [1] = test: Growth inhibition of human SGC-7901 cells assessed as inhibition rate at 150 uM relative to control; assay type: functional
SGC-7901 [2] = test: Growth inhibition of human SGC-7901 cells assessed as inhibition rate at 50 uM relative to control; assay type: functional
SGC-7901 [3] = test: Growth inhibition of human SGC-7901 cells assessed as inhibition rate at 100 uM relative to control; assay type: functional
SGC-7901 [4] = test: Growth inhibition of human SGC-7901 cells assessed as inhibition rate at 5 uM relative to control; assay type: functional
HeLa = test: Growth inhibition of human HeLa cells measured after 48 hrs by MTT assay; assay type: functional, cell-based
NSCLC = test: Antitumor activity against human NSCLC cells; assay type: functional, cell-based
HCT-15 [5] = test: Antitumor activity against wild type human HCT-15 cells; assay type: functional, cell-based
HCT-15 [6] = test: Antitumor activity against CRM1 knockout human HCT-15 cells; assay type: functional, cell-based
[7] = Inhibition of nuclear export in human HeLa cells; assay type: functional, cell-based
SMMC-7721 [8] = test: Antitumor activity against human SMMC-7721 cells measured after 6 hrs; assay type: functional, cell-based; details: SMMC-7721, 6 h
SMMC-7721 [9] = test: Antitumor activity against human SMMC-7721 cells measured after 24 hrs; assay type: functional, cell-based; details: SMMC-7721, 24 h
[10] = Cytotoxicity against human NL9980 cells assessed as inhibition of tumor growth measured after 72 hrs by MTT assay; assay type: functional, cell-based; details: NL9980, 72 h
SMMC-7721 [11] = test: Antitumor activity against human SMMC-7721 cells measured after 12 hrs; assay type: functional, cell-based; details: SMMC-7721, 12 h
[12] = Cytotoxicity against human L9981 cells assessed as inhibition of tumor growth measured after 72 hrs by MTT assay; assay type: functional, cell-based; details: L9981, 72 h
HCT-15 [13] = test: Inhibition of colony formation in human HCT-15 cells at 1 uM incubated for 14 days by crystal violet staining based cell clonogenic assay; assay type: functional; details: HCT-15, 336 h, time 14 day
HCT-15 [14] = test: Antiproliferative activity against human HCT-15 cells assessed as cell viability measured after 3 hrs by CCK-8 assay; assay type: functional, cell-based; details: HCT-15, 3 h
HCT-15 [15] = test: Anticancer activity against human HCT-15 cells assessed as decrease in invading cells at 0.5 uM measured after 36 hrs; assay type: functional
HCT-15 [16] = test: Inhibition of colony formation in human HCT-15 cells at 4 uM incubated for 14 days by crystal violet staining based cell clonogenic assay; assay type: functional; details: HCT-15, 336 h, time 14 day
HT-29 = test: Antiproliferative activity against human HT-29 cells assessed as cell viability measured after 3 hrs by CCK-8 assay; assay type: functional, cell-based; details: HT-29, 3 h
HCT-15 [17] = test: Anticancer activity against human HCT-15 cells assessed as decrease in invading cells at 1 uM measured after 36 hrs; assay type: functional
HCT-15 [18] = test: Inhibition of colony formation in human HCT-15 cells at 2 uM incubated for 14 days by crystal violet staining based cell clonogenic assay; assay type: functional; details: HCT-15, 336 h, time 14 day
SK-N-BE(2) = test: Antiproliferative activity against human SK-N-BE(2) cells by CCK-8 assay; assay type: functional, cell-based; details: SKNBE2
SH-SY5Y = test: Antiproliferative activity against human SH-SY5Y cells by CCK-8 assay; assay type: functional, cell-based
[19] = Inhibition of HIV Rev activity; design: species or system Human immunodeficiency virus

Structure (SMILES): C=C1C(=O)[C@]23[C@H](O)[C@H]1CC[C@H]2[C@@]12CO[C@]3(O)[C@@H](O)[C@@H]1C(C)(C)CC[C@@H]2O [ORIDONIN]
- inhibition at 150 µM (SGC-7901 [1]): 90%
- inhibition at 50 µM (SGC-7901 [2]): 35%
- inhibition at 100 µM (SGC-7901 [3]): 75%
- inhibition at 5 µM (SGC-7901 [4]): 20%

- IC50 (HeLa): 32.4 µM
Structure (SMILES): COc1cc(/C=C/C(=O)CC(=O)/C=C/c2ccc(O)c(OC)c2)ccc1O [CURCUMIN]

- IC50 (NSCLC): 0.025 µM
Structure (SMILES): O=C(/C=C\n1cnc(-c2cc(C(F)(F)F)cc(C(F)(F)F)c2)n1)NNc1cnccn1 [SELINEXOR]

Structure (SMILES): [O-][S+](/C=C/CCN=C=S)c1cc(C(F)(F)F)cc(C(F)(F)F)c1 (stereo not given)
- IC50 (HCT-15 [5]): 0.151 µM
- IC50 (HCT-15 [6]): 14 µM

- EC50 [7]: 3.2 µM
Structure (SMILES): CC(C)CCNC/C=C/[S+]([O-])c1cc(C(F)(F)F)cc(C(F)(F)F)c1 (stereo not given)

Structure (SMILES): CC1=CC(=O)c2c(O)cccc2C1=O [PLUMBAGIN]
- IC50 (SMMC-7721 [8]): 36.1 µM
- IC50 (SMMC-7721 [9]): 2.43 µM
- IC50 [10]: 7.5 µM
- IC50 (SMMC-7721 [11]): 5.41 µM
- IC50 [12]: 9 µM

- IC50 (HCT-15 [14]): 1.2 µM
- IC50 (HT-29): 0.97 µM
Structure (SMILES): CC1=C(C)C(=O)N(Nc2ccc(Cl)c(Cl)n2)C1=O
- inhibition at 1 µM (HCT-15 [13]): 58.5%
- inhibition at 0.5 µM (HCT-15 [15]): 44%
- inhibition at 4 µM (HCT-15 [16]): 91.4%
- inhibition at 1 µM (HCT-15 [17]): 67%
- inhibition at 2 µM (HCT-15 [18]): 83.2%

- IC50 (HeLa): 16.3 µM
Structure (SMILES): COc1cc(/C=C/C(=O)N2CCC=CC2=O)cc(OC)c1OC [PIPLARTINE]

- IC50 (SK-N-BE(2)): 1.4 µM
- IC50 (SH-SY5Y): 0.3 µM
Structure (SMILES): O=C(/C=C\n1cnc(-c2cc(C(F)(F)F)cc(C(F)(F)F)c2)n1)NNc1ccccn1 [VERDINEXOR]

- IC50 [19]: 5.5 µM
Structure (SMILES): CC1=C(COCCC(C)(C)C)C(=O)N(Nc2ccc(C(F)(F)F)c(Cl)n2)C1=O
